Data from patent publication US20230303497A1, “BENZYLAMINE OR BENZYL ALCOHOL DERIVATIVE AND USES THEREOF” (CHENGDU HYPERWAY PHARMACEUTICALS CO., LTD, priority 2020, published 2023).
Read-outs that look alike come from different tables or passages of the source.

Experiments:
human NaV1.8 ion channel = human NaV1.8 ion channel (Homo sapiens (Human), UniProt Q9Y5Y9); assay: Compound inhibition activity on human NaV1.8 ion channel in HEK293 cells (whole-cell patch clamp); format: cell-based; settings: 100 nm concentration; HEK293 cells, resting protocol; read-out: Inhibition ratio of compounds against Nav1.8 (Activity of inhibition)
hERG ion channels = hERG ion channels (Homo sapiens (Human), UniProt Q12809); assay: Inhibition activity test on hERG ion channels in HEK293 cells (cardiac safety, patch clamp)
hERG ion channels, sequence (Q12809 whole entry): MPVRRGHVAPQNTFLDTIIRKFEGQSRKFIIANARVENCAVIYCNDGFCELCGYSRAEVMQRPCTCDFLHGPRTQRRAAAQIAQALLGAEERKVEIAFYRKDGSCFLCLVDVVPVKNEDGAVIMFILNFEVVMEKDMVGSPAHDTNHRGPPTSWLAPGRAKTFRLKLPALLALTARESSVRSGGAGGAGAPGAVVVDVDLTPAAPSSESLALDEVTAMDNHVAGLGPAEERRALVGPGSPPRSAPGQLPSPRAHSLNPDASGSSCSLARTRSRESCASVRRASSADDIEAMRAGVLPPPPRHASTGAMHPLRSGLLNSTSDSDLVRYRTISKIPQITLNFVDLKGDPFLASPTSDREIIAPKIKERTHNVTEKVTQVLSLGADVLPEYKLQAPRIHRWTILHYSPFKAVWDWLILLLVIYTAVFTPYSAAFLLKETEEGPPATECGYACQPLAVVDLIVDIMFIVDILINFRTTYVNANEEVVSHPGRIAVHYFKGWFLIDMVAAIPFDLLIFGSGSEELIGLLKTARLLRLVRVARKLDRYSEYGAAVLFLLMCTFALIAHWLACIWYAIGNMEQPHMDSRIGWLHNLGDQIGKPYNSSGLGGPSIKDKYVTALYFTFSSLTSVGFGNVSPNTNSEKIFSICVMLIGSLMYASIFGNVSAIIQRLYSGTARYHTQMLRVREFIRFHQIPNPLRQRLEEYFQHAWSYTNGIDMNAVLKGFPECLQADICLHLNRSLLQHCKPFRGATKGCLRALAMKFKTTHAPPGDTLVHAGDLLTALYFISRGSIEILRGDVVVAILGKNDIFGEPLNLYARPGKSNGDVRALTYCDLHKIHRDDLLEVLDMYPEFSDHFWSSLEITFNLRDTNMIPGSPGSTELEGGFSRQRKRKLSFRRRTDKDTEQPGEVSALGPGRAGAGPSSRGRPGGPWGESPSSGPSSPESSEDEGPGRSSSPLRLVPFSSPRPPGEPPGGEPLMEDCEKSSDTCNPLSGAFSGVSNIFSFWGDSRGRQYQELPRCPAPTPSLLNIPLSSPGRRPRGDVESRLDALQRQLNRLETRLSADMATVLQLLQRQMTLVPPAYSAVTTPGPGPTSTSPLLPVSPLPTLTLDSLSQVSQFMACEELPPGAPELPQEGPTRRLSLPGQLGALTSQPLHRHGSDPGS
Procedure: This experiment is used as a cardiac safety test of compound.
The reagents are purchased from Sigma (St. Louis, MO) except NaOH and KOH for acid-base titration. Final concentrations of tested solutions are prepared on the testing day and dissolved in extracellular fluid. […] All the test solutions and the control solutions contain 0.3% DMSO. Intracellular fluid (mM) contains: K Aspartate, 130; MgCl2, 5; EGTA 5; HEPES, 10; Tris-ATP 4; pH 7.2 (KOH titration).
Cells: all experiments is performed at room temperature. Each cell itself is taken as the corresponding control.
Compounds are all perfused using a perfusion system that utilizes the gravity. At least two cells are tested per concentration. After current stabilization (or 5 minutes), the change in current magnitude before and after the use of the compound is compared to calculate the blocking effect of the compound.
The method of operation is the same as that of the test compound.
Electrophysiology: Transfer the Cells to the perfusion tank and perfuse with extracellular fluid. The intracellular fluid (mM) contains: K Aspartate, 130; MgCl2, 5; EGTA 5; HEPES, 10; Tris-ATP 4; pH 7.2 (KOH titration). The intracellular fluid is stored in small quantities in portions in a −80° C. refrigerator, and melt on the day of the experiment. Electrodes are drawn with PC-10 (Narishige, Japan). Recording is performed with whole-cell diaphragm clamp. Noise is filtered with one-fifth of the sampling frequency.
This process is repeated every 20 seconds. The hERG tail current is the pure hERG current. The maximum tail current triggered by the second square wave is detected, and when the current is stabilized, the test compound is perfused. The strength of the block is calculated when the response is stabilized.

NaV1.1 = NaV1.1 (Homo sapiens (Human), UniProt P35498); assay: Selectivity test for Nav ion channel subtypes: NaV1.1 (HEK293, patch clamp); format: cell-based; settings: 1 uM; HEK293 cells
Procedure: (§1) Test Case 3: Compound Selectivity Test for Nav Ion Channel Subtypes
(§2) The aim of this test is to investigate effect of compounds on human Na ion channel cells expressed in steady-state (NaV1.1, NaV1.3, NaV1.4, NaV1.5, NaV1.6, NaV1.7). After Na ion currents is stabilized, the effect can be obtained by comparing the magnitude of Na channel currents before and after the application of the compounds.
(§3) The test compound is stored at a concentration of 9 mM in dimethyl sulfoxide (DMSO), and on the day of testing, dissolve in extracellular solution, then prepare to a screening concentration of 1 uM.
(§4) All experiments are performed at room temperature. Each cell itself is taken as the corresponding control.
(§5) At least one cell is tested per concentration.
(§6) HEK293 cells steadily expressing NaV1.1-, NaV1.3-, NaV1.4-, NaV1.5-, NaV1.6-ion channels; CHO cells expressing steadily NaV1.7 ion channel.
(§7) The intracellular fluid (mM) is: Aspartic acid, 140; MgCl2, 2; EGTA 11; HEPES, 10; pH 7.2 (CsOH titration). […] Electrodes are drawn with PC-10 (Narishige, Japan). Recording is performed with whole-cell diaphragm clamp.
(§8) Cells are clamped at −80 mV and then depolarized to −10 mV with a sustained 10 ms square wave to obtain Na ion channel currents (see the FIGURE). This process is repeated every 5 seconds. […] The strength of the block is calculated after the response is stabilized.

NaV1.3 = NaV1.3 (Homo sapiens (Human), UniProt Q9NY46); assay: Selectivity test for Nav ion channel subtypes: NaV1.3 (HEK293, patch clamp); format: cell-based; settings: 1 uM; HEK293 cells
NaV1.3, sequence (Q9NY46 whole entry): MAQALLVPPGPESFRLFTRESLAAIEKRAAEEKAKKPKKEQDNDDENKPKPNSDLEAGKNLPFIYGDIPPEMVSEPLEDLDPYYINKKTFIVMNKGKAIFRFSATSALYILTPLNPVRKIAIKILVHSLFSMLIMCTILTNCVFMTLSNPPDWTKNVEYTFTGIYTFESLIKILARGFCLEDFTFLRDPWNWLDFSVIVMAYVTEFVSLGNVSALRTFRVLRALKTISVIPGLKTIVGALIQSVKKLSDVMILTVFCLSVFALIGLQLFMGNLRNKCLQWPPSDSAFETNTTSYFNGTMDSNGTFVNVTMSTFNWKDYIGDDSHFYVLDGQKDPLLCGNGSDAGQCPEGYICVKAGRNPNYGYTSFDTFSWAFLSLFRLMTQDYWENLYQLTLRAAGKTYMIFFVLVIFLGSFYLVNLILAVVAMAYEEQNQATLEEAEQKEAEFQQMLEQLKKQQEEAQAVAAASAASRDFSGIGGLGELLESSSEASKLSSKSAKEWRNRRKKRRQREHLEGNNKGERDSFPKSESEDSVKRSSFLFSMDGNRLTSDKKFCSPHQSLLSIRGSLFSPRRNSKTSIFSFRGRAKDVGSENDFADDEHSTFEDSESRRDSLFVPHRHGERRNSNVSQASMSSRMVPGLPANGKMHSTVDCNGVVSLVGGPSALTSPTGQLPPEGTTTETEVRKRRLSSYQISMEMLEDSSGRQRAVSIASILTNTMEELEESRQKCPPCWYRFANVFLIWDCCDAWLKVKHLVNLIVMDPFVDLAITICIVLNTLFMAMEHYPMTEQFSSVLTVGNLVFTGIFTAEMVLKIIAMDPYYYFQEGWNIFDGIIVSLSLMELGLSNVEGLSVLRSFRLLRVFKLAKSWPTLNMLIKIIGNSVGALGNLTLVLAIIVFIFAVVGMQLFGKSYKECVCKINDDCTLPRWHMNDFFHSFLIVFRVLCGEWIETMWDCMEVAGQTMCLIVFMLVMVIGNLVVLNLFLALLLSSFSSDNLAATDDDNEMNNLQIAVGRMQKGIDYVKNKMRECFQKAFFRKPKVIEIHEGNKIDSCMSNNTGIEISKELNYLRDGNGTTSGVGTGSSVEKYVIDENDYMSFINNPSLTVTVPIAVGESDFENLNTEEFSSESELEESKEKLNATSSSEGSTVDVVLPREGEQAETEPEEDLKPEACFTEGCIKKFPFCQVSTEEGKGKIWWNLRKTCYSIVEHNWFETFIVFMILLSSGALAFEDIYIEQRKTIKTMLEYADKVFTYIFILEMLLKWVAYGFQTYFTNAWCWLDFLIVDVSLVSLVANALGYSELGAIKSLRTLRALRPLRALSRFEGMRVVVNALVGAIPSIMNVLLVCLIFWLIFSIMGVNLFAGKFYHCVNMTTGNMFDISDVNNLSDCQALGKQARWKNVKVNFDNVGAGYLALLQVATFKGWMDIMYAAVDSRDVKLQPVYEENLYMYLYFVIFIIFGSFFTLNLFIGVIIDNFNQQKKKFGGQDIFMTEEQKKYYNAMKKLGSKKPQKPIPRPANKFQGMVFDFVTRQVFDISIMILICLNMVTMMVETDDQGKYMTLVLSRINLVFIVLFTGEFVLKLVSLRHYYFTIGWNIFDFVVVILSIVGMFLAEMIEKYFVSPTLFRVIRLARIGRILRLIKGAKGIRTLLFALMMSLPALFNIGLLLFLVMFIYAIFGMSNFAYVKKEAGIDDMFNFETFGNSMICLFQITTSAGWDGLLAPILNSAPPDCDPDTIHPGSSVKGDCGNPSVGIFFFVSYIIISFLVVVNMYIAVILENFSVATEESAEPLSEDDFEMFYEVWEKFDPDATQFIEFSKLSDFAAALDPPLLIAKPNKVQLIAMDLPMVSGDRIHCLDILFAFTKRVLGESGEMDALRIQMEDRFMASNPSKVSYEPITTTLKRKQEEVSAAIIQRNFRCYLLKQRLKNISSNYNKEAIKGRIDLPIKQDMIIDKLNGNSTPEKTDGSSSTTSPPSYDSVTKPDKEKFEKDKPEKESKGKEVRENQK
Procedure: as §1, §2, §3, §4, §5, §6, §7, §8

NaV1.4 = NaV1.4 (Homo sapiens (Human), UniProt P35499); assay: Selectivity test for Nav ion channel subtypes: NaV1.4 (HEK293, patch clamp); format: cell-based; settings: 1 uM; HEK293 cells
Procedure: as §1, §2, §3, §4, §5, §6, §7, §8

NaV1.5 = NaV1.5 (Homo sapiens (Human), UniProt Q14524); assay: Selectivity test for Nav ion channel subtypes: NaV1.5 (HEK293, patch clamp); format: cell-based; settings: 1 uM; HEK293 cells
Procedure: as §1, §2, §3, §4, §5, §6, §7, §8

NaV1.6 = NaV1.6 (Homo sapiens (Human), UniProt Q9UQD0); assay: Selectivity test for Nav ion channel subtypes: NaV1.6 (HEK293, patch clamp); format: cell-based; settings: 1 uM; HEK293 cells
Procedure: as §1, §2, §3, §4, §5, §6, §7, §8

NaV1.7 = NaV1.7 (Homo sapiens (Human), UniProt Q15858); assay: Selectivity test for Nav ion channel subtypes: NaV1.7 (CHO cells, patch clamp); format: cell-based; settings: 1 uM
NaV1.7, sequence (Q15858 whole entry): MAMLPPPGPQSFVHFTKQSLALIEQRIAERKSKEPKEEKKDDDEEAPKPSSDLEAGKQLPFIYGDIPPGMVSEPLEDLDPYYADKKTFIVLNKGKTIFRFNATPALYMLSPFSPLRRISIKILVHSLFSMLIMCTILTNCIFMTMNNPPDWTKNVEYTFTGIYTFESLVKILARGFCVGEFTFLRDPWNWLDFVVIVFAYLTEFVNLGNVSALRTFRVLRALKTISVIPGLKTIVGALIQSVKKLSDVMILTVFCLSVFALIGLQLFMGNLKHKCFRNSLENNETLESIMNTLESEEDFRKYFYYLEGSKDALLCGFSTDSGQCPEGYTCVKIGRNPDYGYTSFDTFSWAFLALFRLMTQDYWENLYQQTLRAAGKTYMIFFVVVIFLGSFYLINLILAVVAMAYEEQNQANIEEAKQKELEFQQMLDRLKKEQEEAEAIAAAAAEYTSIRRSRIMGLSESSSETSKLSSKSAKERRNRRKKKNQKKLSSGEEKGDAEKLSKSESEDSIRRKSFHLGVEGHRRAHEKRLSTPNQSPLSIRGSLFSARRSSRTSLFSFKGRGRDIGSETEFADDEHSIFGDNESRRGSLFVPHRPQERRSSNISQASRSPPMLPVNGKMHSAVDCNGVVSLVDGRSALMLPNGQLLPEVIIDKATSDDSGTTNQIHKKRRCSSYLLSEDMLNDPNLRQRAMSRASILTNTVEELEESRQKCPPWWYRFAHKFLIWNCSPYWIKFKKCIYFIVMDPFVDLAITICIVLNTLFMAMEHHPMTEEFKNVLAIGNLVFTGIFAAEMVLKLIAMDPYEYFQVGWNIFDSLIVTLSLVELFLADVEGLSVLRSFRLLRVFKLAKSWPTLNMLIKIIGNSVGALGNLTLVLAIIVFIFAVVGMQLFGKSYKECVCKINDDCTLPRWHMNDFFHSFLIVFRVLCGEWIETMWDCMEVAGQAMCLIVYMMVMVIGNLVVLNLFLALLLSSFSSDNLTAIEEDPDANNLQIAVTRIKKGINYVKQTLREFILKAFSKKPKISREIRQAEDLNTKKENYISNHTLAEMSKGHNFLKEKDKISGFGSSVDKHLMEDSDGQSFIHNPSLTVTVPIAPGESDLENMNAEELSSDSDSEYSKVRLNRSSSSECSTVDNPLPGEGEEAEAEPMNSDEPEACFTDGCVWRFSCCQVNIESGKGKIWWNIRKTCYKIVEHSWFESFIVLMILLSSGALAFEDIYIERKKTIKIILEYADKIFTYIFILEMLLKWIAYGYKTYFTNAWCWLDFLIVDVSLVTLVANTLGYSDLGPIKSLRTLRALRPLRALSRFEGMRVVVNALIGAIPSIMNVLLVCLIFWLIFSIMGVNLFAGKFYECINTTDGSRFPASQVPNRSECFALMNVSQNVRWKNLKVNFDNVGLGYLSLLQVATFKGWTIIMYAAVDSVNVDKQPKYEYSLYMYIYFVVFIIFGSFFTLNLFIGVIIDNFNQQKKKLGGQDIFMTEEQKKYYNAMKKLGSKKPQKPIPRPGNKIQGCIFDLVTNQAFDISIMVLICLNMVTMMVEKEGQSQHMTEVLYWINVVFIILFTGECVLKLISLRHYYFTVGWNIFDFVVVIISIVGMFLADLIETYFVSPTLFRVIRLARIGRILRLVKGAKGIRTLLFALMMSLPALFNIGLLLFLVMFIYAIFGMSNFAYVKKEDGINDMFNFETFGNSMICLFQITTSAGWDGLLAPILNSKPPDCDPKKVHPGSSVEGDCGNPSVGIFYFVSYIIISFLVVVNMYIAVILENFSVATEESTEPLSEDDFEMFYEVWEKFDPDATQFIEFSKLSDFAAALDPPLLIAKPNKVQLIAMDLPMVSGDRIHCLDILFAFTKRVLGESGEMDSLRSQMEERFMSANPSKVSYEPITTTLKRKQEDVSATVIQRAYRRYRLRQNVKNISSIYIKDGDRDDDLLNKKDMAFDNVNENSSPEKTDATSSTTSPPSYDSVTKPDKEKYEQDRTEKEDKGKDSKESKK
Procedure: as §1, §2, §3, §4, §5, §6, §7, §8

[1] = In vivo pharmacokinetic testing of compounds in rats; settings: rat, male SD rats, single oral dose 100 mg/kg, plasma, VX-150 dosed as prodrug, active form analysed; for AUC: read-out: AUC; for Cmax: read-out: Cmax
Procedure: Test Case 4: In Vivo Pharmacokinetic Testing of Compounds in Rats
All SD rats in the test are male and are purchased from Shanghai Sippe-Bk Lab Animal Co., Ltd. Each compound is administered orally (100 mg/kg, 3 rats per group) at single dose to SD rats for pharmacokinetic study. The solutions are prepared on the same day of administration, e.g., the tested compound is suspended in 5% DMSO+95% saline, get vortexed for 2 min, and sonicated for 5 min to prepare a drug delivery system. The animals are fasted for 10-14 hours before oral administration, and resumed food 4 hours after administration. After oral administration by gavage in SD rats, pharmacokinetic samples are collected from jugular vein at the following time points: 0, 15 min, 30 min, 1 h, 2 h, 4 h, 6 h, 8 h and 24 h. Three whole blood samples are collected at each time point in a volume of about 0.2 mL and anticoagulated using sodium heparin. Blood samples are placed on ice immediately after collection and plasma is separated by centrifugation within 1 h (centrifugation conditions: 6800 rpm, 6 min, 2-8° C.). The collected plasma is stored in a −80° C. refrigerator prior to analysis.
In pharmacokinetic tests in rat, the control compound VX-150 is a prodrug (WO2015089361, compound 9), after administration, analysis is performed to test its active form (WO2014120808, compound 10). The aforementioned in vitro pharmacological tests are performed using the active ingredient (WO2014120808, compound 10).

SMILES | inhibition at 0.1 µM (human NaV1.8 ion channel) | IC50 (hERG ion channels; human, pH 7.4) | Inhibition ratio on Nav1.1 (NaV1.1) | Inhibition ratio on Nav1.3 (NaV1.3) | Inhibition ratio on Nav1.4 (NaV1.4) | Inhibition ratio on Nav1.5 (NaV1.5) | Inhibition ratio on Nav1.6 (NaV1.6) | Inhibition ratio on Nav1.7 (NaV1.7) | half-life [1] | AUC [1] | Cmax [1] | IC50 (hERG ion channels)
Cc1cc(F)ccc1Oc1cc(C2CC2)c(C(F)(F)F)cc1C(=O)Nc1ccc(F)c(OC[C@H](O)CNC(=O)CO)c1 [Example 119] | > 80% | 4.2 µM | <1% | <1% | 1.4% | 2.8% | 5.1% | <1% | 1.9 h | 44500 ng·h/mL | 5190 ng/mL | –
Cc1cc(F)ccc1Oc1cc(C(F)(F)F)c(Cl)cc1C(=O)Nc1ccnc(OC[C@H](O)CO)c1 [Example 114, (R)-5-chloro-N-(2-(2,3-dihydroxypropoxy)pyridin-4-yl)-2-(4-fluoro-2-methylphenoxy)-4-(trifluoromethyl) benzamide] | > 80% | – | 4.8% | 4.4% | 2.7% | 5.9% | 8.3% | <1% | 11.7 h | 154000 ng·h/mL | 7640 ng/mL | 22.3 µM
